Assay results from ChEMBL document CHEMBL1201861, “Genomics of Drug Sensitity in Cancer screening data, Wellcome Trust Sanger Institute”.

Tests used:
MFE-296 = test: SANGER: Inhibition of human MFE-296 cell growth in a cell viability assay.; assay type: functional, cell-based
HCC1419 = test: cells; assay type: functional, cell-based; conditions: Homo sapiens;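 further: growth inhibition of human HCC1419 cells, read out as cell viability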
Description: SANGER: Inhibition of human HCC1419 cell growth in a cell viability assay.

IPC-298 = test: SANGER: Inhibition of human IPC-298 cell growth in a cell viability assay.; assay type: functional, cell-based
NCI-H358 = test: cells; assay type: functional, cell-based; conditions: Homo sapiens;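 further: growth inhibition of NCI-H358 human cells, read out with a cell viability assay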
Description: SANGER: Inhibition of human NCI-H358 cell growth in a cell viability assay.

HuO-3N1 = test: cells; assay type: functional, cell-based; conditions: Homo sapiens;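 further: cell viability readout used to measure how strongly compounds suppress proliferation of human HuO-3N1 cells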
Description: SANGER: Inhibition of human HuO-3N1 cell growth in a cell viability assay.

CCF-STTG1 = test: cells; assay type: functional, cell-based; conditions: Homo sapiens;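 further: growth inhibition of human CCF-STTG1 cells, determined with a cell viability read-out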
Description: SANGER: Inhibition of human CCF-STTG1 cell growth in a cell viability assay.

SK-CO-1 = test: cells; assay type: functional, cell-based; conditions: Homo sapiens;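 further: growth inhibition of SK-CO-1 cells, determined by a viability readout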
Description: SANGER: Inhibition of human SK-CO-1 cell growth in a cell viability assay.

IM-9 = test: SANGER: Inhibition of human IM-9 cell growth in a cell viability assay.; assay type: functional, cell-based; conditions: Homo sapiens, IM-9
COLO-792 = test: cells; assay type: functional, cell-based; conditions: Homo sapiens
Description: SANGER: Inhibition of human COLO-792 cell growth in a cell viability assay.

C-4-II = test: SANGER: Inhibition of human C-4-II cell growth in a cell viability assay.; assay type: functional, cell-based
DMS-53 = test: cells; assay type: functional, cell-based; conditions: Homo sapiens;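 further: cell viability assay measuring growth inhibition of human DMS-53 cells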
Description: SANGER: Inhibition of human DMS-53 cell growth in a cell viability assay.

OVCAR-8 = test: cells; assay type: functional, cell-based; conditions: Homo sapiens;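 further: growth inhibition of human OVCAR-8 cells, read out by a cell viability assay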
Description: SANGER: Inhibition of human OVCAR-8 cell growth in a cell viability assay.

SNG-M = test: cells; assay type: functional, cell-based; conditions: Homo sapiens
Description: SANGER: Inhibition of human SNG-M cell growth in a cell viability assay.

NCI-H596 = test: cells; assay type: functional, cell-based; conditions: Homo sapiens;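 further: growth inhibition of NCI-H596 cells, read out with a cell viability assay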
Description: SANGER: Inhibition of human NCI-H596 cell growth in a cell viability assay.

RPMI-7951 = test: cells; assay type: functional, cell-based; conditions: Homo sapiens
Description: SANGER: Inhibition of human RPMI-7951 cell growth in a cell viability assay.

G-361 = test: cells; assay type: functional, cell-based; conditions: Homo sapiens
8505C = test: cells; assay type: functional, cell-based; conditions: Homo sapiens
Description: SANGER: Inhibition of human 8505C cell growth in a cell viability assay.

NCI-H1618 = test: cells; assay type: functional, cell-based; conditions: Homo sapiens;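 further: growth inhibition of human NCI-H1618 cells, measured by a cell viability assay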
Description: SANGER: Inhibition of human NCI-H1618 cell growth in a cell viability assay.

A673 = test: cells; assay type: functional, cell-based; conditions: Homo sapiens;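 further: growth inhibition of human A673 cells, read out through a cell viability assay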
Description: SANGER: Inhibition of human A673 cell growth in a cell viability assay.

NCI-H748 = test: cells; assay type: functional, cell-based, Homo sapiens; conditions: Homo sapiens, NCI-H748;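 further: growth inhibition of NCI-H748 cells, measured by a cell viability assay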
Description: SANGER: Inhibition of human NCI-H748 cell growth in a cell viability assay.

DoTc2-4510 = test: cells; assay type: functional, cell-based; conditions: Homo sapiens
MHH-ES-1 = test: cells; assay type: functional, cell-based; conditions: Homo sapiens
Description: SANGER: Inhibition of human MHH-ES-1 cell growth in a cell viability assay.

COLO-679 = test: cells; assay type: functional, cell-based; conditions: Homo sapiens
Description: SANGER: Inhibition of human COLO-679 cell growth in a cell viability assay.

D-392MG = test: cells; assay type: functional, cell-based; conditions: Homo sapiens
SNU-449 = test: cells; assay type: functional, cell-based; conditions: Homo sapiens
Description: SANGER: Inhibition of human SNU-449 cell growth in a cell viability assay.

BPH-1 = test: cells; assay type: functional, cell-based; conditions: Homo sapiens;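 further: cell viability assay measuring growth inhibition of human BPH-1 cells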
Description: SANGER: Inhibition of human BPH-1 cell growth in a cell viability assay.

U-251 = test: cells; assay type: functional, cell-based; conditions: Homo sapiens;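 further: growth inhibition of human U-251 cells, read out through a cell viability assay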
Description: SANGER: Inhibition of human U251 cell growth in a cell viability assay.

OPM-2 = test: cells; assay type: functional, cell-based, Homo sapiens; conditions: Homo sapiens, OPM-2;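 further: growth of OPM-2 cells measured with a viability assay, IC50 for suppression of proliferation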
Description: SANGER: Inhibition of human OPM-2 cell growth in a cell viability assay.

DMS-153 = test: cells; assay type: functional, cell-based, Homo sapiens; conditions: Homo sapiens, DMS-153
Description: SANGER: Inhibition of human DMS-153 cell growth in a cell viability assay.

GDM-1 = test: cells; assay type: functional, cell-based, Homo sapiens; conditions: Homo sapiens, GDM-1; read-out: IC50;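 further: cell viability readout used to measure growth inhibition of human GDM-1 cells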
Description: SANGER: Inhibition of human GDM-1 cell growth in a cell viability assay.

HT-1080 = test: cells; assay type: functional, cell-based; conditions: Homo sapiens
Description: SANGER: Inhibition of human HT-1080 cell growth in a cell viability assay.

PLC-PRF-5 = test: cells; assay type: functional, cell-based; conditions: Homo sapiens;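 further: growth inhibition of human PLC-PRF-5 cells, read out with a viability assay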
Description: SANGER: Inhibition of human PLC-PRF-5 cell growth in a cell viability assay.

NCI-H727 = test: cells; assay type: functional, cell-based; conditions: Homo sapiens;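 further: growth inhibition of human NCI-H727 cells, read out with a cell viability assay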
Description: SANGER: Inhibition of human NCI-H727 cell growth in a cell viability assay.

IGR-1 = test: cells; assay type: functional, cell-based; conditions: Homo sapiens;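 further: growth inhibition of human IGR-1 cells, read out with a cell viability assay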
Description: SANGER: Inhibition of human IGR-1 cell growth in a cell viability assay.

KP-N-YN = test: cells; assay type: functional, cell-based; conditions: Homo sapiens;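 further: growth inhibition of KP-N-YN cells, read out with a cell viability assay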
Description: SANGER: Inhibition of human KP-N-YN cell growth in a cell viability assay.

NCI-H2405 = test: cells; assay type: functional, cell-based; conditions: Homo sapiens;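 further: growth inhibition of the human cell line, read out with a cell viability assay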
Description: SANGER: Inhibition of human NCI-H2405 cell growth in a cell viability assay.

SCC-25 = test: cells; assay type: functional, cell-based; conditions: Homo sapiens;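 further: growth inhibition of SCC-25 cells, measured with a cell viability assay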
Description: SANGER: Inhibition of human SCC-25 cell growth in a cell viability assay.

RPMI 8402 = test: SANGER: Inhibition of human RPMI-8402 cell growth in a cell viability assay.; assay type: functional, cell-based; conditions: Homo sapiens, RPMI 8402
RVH-421 = test: cells; assay type: functional, cell-based; conditions: Homo sapiens
Description: SANGER: Inhibition of human RVH-421 cell growth in a cell viability assay.

BHT-101 = test: cells; assay type: functional, cell-based; conditions: Homo sapiens
Description: SANGER: Inhibition of human BHT-101 cell growth in a cell viability assay.

EGI-1 = test: cells; assay type: functional, cell-based; conditions: Homo sapiens;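 further: cell viability readout used to gauge growth inhibition of EGI-1 cells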
Description: SANGER: Inhibition of human EGI-1 cell growth in a cell viability assay.

TT = test: cells; assay type: functional, cell-based; conditions: Homo sapiens
Description: SANGER: Inhibition of human TT cell growth in a cell viability assay.

SU-DHL-1 = test: SANGER: Inhibition of human SU-DHL-1 cell growth in a cell viability assay.; assay type: functional, cell-based; conditions: Homo sapiens, SU-DHL-1
UACC-812 = test: cells; assay type: functional, cell-based; conditions: Homo sapiens
Description: SANGER: Inhibition of human UACC-812 cell growth in a cell viability assay.

DV-90 = test: cells; assay type: functional, cell-based; conditions: Homo sapiens;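 further: Read-out is a viability assay, with IC50 reflecting the drop in DV-90 cell growth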
Description: SANGER: Inhibition of human DV-90 cell growth in a cell viability assay.

MHH-CALL-2 = test: cells; assay type: functional, cell-based, Homo sapiens; conditions: Homo sapiens, MHH-CALL-2;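 further: growth inhibition of the cell line, read out in a cell viability assay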
Description: SANGER: Inhibition of human MHH-CALL-2 cell growth in a cell viability assay.

D-336MG = test: cells; assay type: functional, cell-based, Homo sapiens; conditions: Homo sapiens, D-336MG
Description: SANGER: Inhibition of human D-336MG cell growth in a cell viability assay.

Measured: IC50

COc1ccc(-c2cc3nccn3c(Nc3ncccc3C(N)=O)n2)cc1OC
1.99 µM: BPH-1
7.24 µM: CCF-STTG1
6.15 µM: NCI-H727
> 8 µM: MFE-296 | HCC1419 | IPC-298 | HuO-3N1 | SK-CO-1 | IM-9 | COLO-792 | C-4-II | DMS-53 | OVCAR-8 | NCI-H596 | NCI-H1618 | A673 | NCI-H748 | MHH-ES-1 | COLO-679 | D-392MG | SNU-449 | U-251 | DMS-153 | PLC-PRF-5 | KP-N-YN | NCI-H2405 | SCC-25 | RVH-421 | BHT-101 | EGI-1 | TT | SU-DHL-1 | UACC-812 | DV-90 | MHH-CALL-2
2.26 µM: SNG-M
1.77 µM: 8505C | RPMI 8402
3.48 µM: RPMI-7951
6.54 µM: IGR-1
3.23 µM: HT-1080
4.3 µM: G-361
0.689 µM: NCI-H358
0.683 µM: GDM-1
1.06 µM: DoTc2-4510
6.16 µM: OPM-2

COC(=O)[C@H](CCSC)NC(=O)c1ccc(NC[C@@H](N)CS)cc1-c1ccccc1
> 1.02 µM: D-336MG | MFE-296 | HCC1419 | IPC-298 | NCI-H358 | HuO-3N1 | CCF-STTG1 | SK-CO-1 | IM-9 | COLO-792 | C-4-II | DMS-53 | OVCAR-8 | SNG-M | NCI-H596 | RPMI-7951 | G-361 | 8505C | NCI-H1618 | A673 | NCI-H748 | DoTc2-4510 | MHH-ES-1 | COLO-679 | D-392MG | SNU-449 | BPH-1 | U-251 | OPM-2 | DMS-153 | GDM-1 | HT-1080 | PLC-PRF-5 | NCI-H727 | IGR-1 | NCI-H2405 | SCC-25 | RPMI 8402 | RVH-421 | BHT-101 | EGI-1 | TT | SU-DHL-1 | UACC-812 | DV-90 | MHH-CALL-2

OC[C@H](Cc1ccccc1)Nc1nc(Oc2ccc3c(c2)CCC3)nc2c1ncn2Cc1ccc(-c2ccccc2)cc1
1.41 µM: RPMI-7951
2.66 µM: COLO-679
2.06 µM: G-361
4.79 µM: COLO-792
1.09 µM: SNU-449
3.33 µM: GDM-1
4.57 µM: 8505C
5.93 µM: SNG-M
> 10.2 µM: MFE-296 | HCC1419 | IPC-298 | NCI-H358 | HuO-3N1 | CCF-STTG1 | SK-CO-1 | IM-9 | C-4-II | DMS-53 | OVCAR-8 | NCI-H596 | NCI-H1618 | A673 | NCI-H748 | DoTc2-4510 | MHH-ES-1 | D-392MG | BPH-1 | U-251 | OPM-2 | DMS-153 | PLC-PRF-5 | NCI-H727 | IGR-1 | KP-N-YN | NCI-H2405 | SCC-25 | RPMI 8402 | RVH-421 | BHT-101 | EGI-1 | TT | SU-DHL-1 | UACC-812 | DV-90 | MHH-CALL-2
5.13 µM: HT-1080

O=S(=O)(O)c1ccc2cc(/N=N/c3cc(S(=O)(=O)O)c4cccnc4c3O)ccc2c1
> 16 µM: D-336MG | MFE-296 | HCC1419 | IPC-298 | NCI-H358 | HuO-3N1 | CCF-STTG1 | SK-CO-1 | IM-9 | COLO-792 | C-4-II | DMS-53 | OVCAR-8 | SNG-M | NCI-H596 | RPMI-7951 | G-361 | 8505C | NCI-H1618 | A673 | NCI-H748 | DoTc2-4510 | MHH-ES-1 | COLO-679 | D-392MG | SNU-449 | BPH-1 | U-251 | OPM-2 | DMS-153 | GDM-1 | HT-1080 | PLC-PRF-5 | NCI-H727 | IGR-1 | NCI-H2405 | SCC-25 | RPMI 8402 | RVH-421 | BHT-101 | EGI-1 | TT | SU-DHL-1 | UACC-812 | DV-90 | MHH-CALL-2

CO[C@@H]1[C@H](N(C)C(=O)c2ccccc2)C[C@H]2O[C@]1(C)n1c3ccccc3c3c4c(c5c6ccccc6n2c5c31)C(=O)NC4 [MIDOSTAURIN]
0.331 µM: D-392MG
0.16 µM: HT-1080
> 0.512 µM: MFE-296 | IPC-298 | IM-9 | NCI-H596 | RPMI 8402 | EGI-1 | SU-DHL-1
0.351 µM: NCI-H2405
0.209 µM: G-361
0.349 µM: C-4-II

Cc1ccc(C(=O)Nc2ccc(CN3CCN(C)CC3)c(C(F)(F)F)c2)cc1C#Cc1cnc2cccnn12 [PONATINIB]
0.118 µM: MFE-296
0.232 µM: D-392MG
0.3 µM: SNU-449
0.0183 µM: GDM-1
0.225 µM: CCF-STTG1
0.365 µM: OPM-2
0.0638 µM: SU-DHL-1
> 0.512 µM: D-336MG | HCC1419 | IPC-298 | NCI-H358 | HuO-3N1 | SK-CO-1 | IM-9 | COLO-792 | C-4-II | DMS-53 | OVCAR-8 | SNG-M | NCI-H596 | RPMI-7951 | G-361 | 8505C | NCI-H1618 | A673 | NCI-H748 | DoTc2-4510 | MHH-ES-1 | COLO-679 | BPH-1 | U-251 | DMS-153 | HT-1080 | PLC-PRF-5 | NCI-H727 | IGR-1 | NCI-H2405 | SCC-25 | RPMI 8402 | RVH-421 | BHT-101 | EGI-1 | TT | UACC-812 | DV-90 | MHH-CALL-2
